According to patent US12280066B2, “Methods and compositions related to glucocorticoid receptor antagonists and breast cancer” (The University of Chicago, priority 2010, dated 2025):

Tests used:
[1] = test system: T-R MCF-7 (ER+/PR+/GR+) cells; assay: Annexin V FACS apoptosis assay, T-R MCF-7 cells; format: cell-based; settings: mifepristone/paclitaxel 10^-6 M compared to paclitaxel alone, 20 hours, P=0.028
Protocol: (§1) Apoptosis was measured using FITC conjugated-anti-Annexin V antibody labeling followed FACS analysis to determine the percentage of the total cell population undergoing apoptosis after 20 hours of treatment.

[2] = test system: glucocorticoid receptor (GR); settings: literature (Moran et al., 2000; Mikosz et al., 2001); cited from earlier work
[3] = test system: Parental MCF-7 (ER+/PR+/GR+) cells; assay: Annexin V FACS apoptosis assay, parental MCF-7 cells; format: cell-based; settings: mifepristone/paclitaxel 10^-6 M compared to paclitaxel alone, 20 hours
Protocol: as §1

[4] = test system: MDA-MB-231 human breast cancer cells; assay: MDA-MB-231 xenograft tumor volume in SCID mice; settings: mifepristone 15 mg/kg i.p. two hours prior to paclitaxel 10 mg/kg, five successive days, compared to paclitaxel alone, P=0.013

## CC#C[C@]1(O)CC[C@H]2[C@@H]3CCC4=CC(=O)CCC4=C3[C@@H](c3ccc(N(C)C)cc3)C[C@@]21C [mifepristone]
[1]
  apoptosis (percentage of total cell population undergoing apoptosis): Significantly more apoptosis
[1]; listed as Mifepristone
  apoptosis (percentage of total cell population undergoing apoptosis): increases
[2]
  reversal of GR-initiated cell survival signaling: reverses cell survival signaling pathways initiated by the GR
[3]
  apoptosis (percentage of total cell population undergoing apoptosis): No difference
[3]; listed as Mifepristone
  apoptosis (percentage of total cell population undergoing apoptosis): not parental MCF-7
[4]
  tumor volume over time: increases MDA-MB-231 tumor susceptibility to paclitaxel
[4]; listed as Mifepristone
  tumor volume over time: significantly decreased tumor volume over time
